From US20260130395A1, “Water Dispersible Botanical Compositions” (Aquila Black Limited, priority 2021, published 2026)

What was measured:
[1] = Stability of cannabinoid entourage and Vitamin E components of the powder concentrate by LCMSMS; format: physicochemical; conditions: powder stored at 21-25° C.
Experimental: At each time period, 0.05 g of powder was dissolved in 10 ml-15 of ethanol, diluted to fall within the analytical range, and injected into the LCMSMS for analysis.

[2] = Stability of Nanoemulsion Concentrate 3 (α-tocopherol and Vitamin B12 content) by LCMSMS; format: physicochemical; conditions: for Stability of α-tocopherol in Nanoemulsion Concentrate 3: average of triplicate
Experimental: At each time period (0, 7, 28, 60, 120, 150 and 180 days), triplicate samples were analysed for content of α-tocopherol and Vitamin B12.
(FIGS. 14 and 15, Table 13). Data reported in Table 13 and plotted in FIGS. 14 and 15 are average values of the triplicate measurements taken.

With `Cc1c(C)c2c(c(C)c1O)CC[C@@](C)(CCC[C@H](C)CCC[C@H](C)CCCC(C)C)O2` [α-Tocopherol] the “Stability of Vitamin Es in Powder Concentrate” value (“Stability of Vitamin Es” below) ([1]; 0 days) was 4.85 mg/g powder, the “Stability of Vitamin Es” value ([1]; 1 days) was 4.89 mg/g powder and the “Stability of Vitamin Es” value ([1]; 2 days) was 4.79 mg/g powder. For the same compound, the “Stability of Vitamin Es” value ([1]; 3 days) was 4.69 mg/g powder, the “Stability of Vitamin Es” value ([1]; 5 days) was 4.99 mg/g powder and the “Stability of Vitamin Es” value ([1]; 8 days) was 4.69 mg/g powder. For the same compound, the “Stability of Vitamin Es” value ([1]; 9 days) was 4.75 mg/g powder, the “Stability of Vitamin Es” value ([1]; 10 days) was 4.77 mg/g powder and the “Stability of Vitamin Es” value ([1]; 11 days) was 5.04 mg/g powder. The “Stability of Vitamin Es” value ([1]; 12 days) was 5.01 mg/g powder, the “Stability of Vitamin Es” value ([1]; 15 days) was 5.07 mg/g powder and the “Stability of Vitamin Es” value ([1]; 16 days) was 4.96 mg/g powder. The “Stability of Vitamin Es” value ([1]; 17 days) was 4.94 mg/g powder, the “Stability of Vitamin Es” value ([1]; 18 days) was 4.77 mg/g powder and the “Stability of Vitamin Es” value ([1]; 19 days) was 5.04 mg/g powder. The “Stability of Vitamin Es” value ([1]; 22 days) was 4.94 mg/g powder, the “Stability of Vitamin Es” value ([1]; 23 days) was 4.91 mg/g powder and the “Stability of Vitamin Es” value ([1]; 24 days) was 5.00 mg/g powder. For the same compound, the “Stability of Vitamin Es” value ([1]; 25 days) was 5.06 mg/g powder, the “Stability of Vitamin Es” value ([1]; 26 days) was 4.84 mg/g powder and the “Stability of Vitamin Es” value ([1]; 29 days) was 4.85 mg/g powder. For the same compound, the “Stability of Vitamin Es” value ([1]; 30 days) was 4.83 mg/g powder, the “Stability of Vitamin Es” value ([1]; 60 days) was 4.91 mg/g powder and the “Stability of Vitamin Es” value ([1]; 90 days) was 4.96 mg/g powder. For the same compound, the “Stability of Vitamin Es” value ([1]; 120 days) was 4.93 mg/g powder, the “Stability of Vitamin Es” value ([1]; 150 days) was 4.69 mg/g powder and the “Stability of Vitamin Es” value ([1]; 180 days) was 4.70 mg/g powder. For the same compound, the “Stability of Vitamin Es” value ([1]; 210 days) was 4.84 mg/g powder, the “Stability of Vitamin Es” value ([1]; 240 days) was 5.03 mg/g powder and the “Stability of Vitamin Es” value ([1]; 270 days) was 4.78 mg/g powder. For the same compound, the “Stability of Vitamin Es” value ([1]; 300 days) was 4.81 mg/g powder, the “Stability of Vitamin Es” value ([1]; 330 days) was 4.81 mg/g powder and the “Stability of Vitamin Es” value ([1]; 360 days) was 4.83 mg/g powder. For the same compound, the “Stability of Vitamin Es” value ([1]; 390 days) was 4.91 mg/g powder, the “Stability of Vitamin Es” value ([1]; 420 days) was 4.69 mg/g powder and the “Stability of Vitamin Es” value ([1]; 450 days) was 5.00 mg/g powder. The “Stability of Vitamin Es” value ([1]; 480 days) was 4.98 mg/g powder, the “Stability of Vitamin Es” value ([1]; 510 days) was 5.02 mg/g powder and the “Stability of Vitamin Es” value ([1]; 540 days) was 5.03 mg/g powder. For the same compound, the “Stability of Vitamin Es” value ([1]; 570 days) was 4.72 mg/g powder, the “Stability of α-tocopherol in Nanoemulsion Concentrate 3” value (“Stability of α-tocopherol” below) ([2]; Refrigerated (2-4° C.), 0 days) was 0.25 mg/mL and the “Stability of α-tocopherol” value ([2]; Refrigerated (2-4° C.), 7 days) was 0.25 mg/mL. For the same compound, the “Stability of α-tocopherol” value ([2]; Refrigerated (2-4° C.), 28 days) was 0.23 mg/mL, the “Stability of α-tocopherol” value ([2]; Refrigerated (2-4° C.), 60 days) was 0.26 mg/mL and the “Stability of α-tocopherol” value ([2]; Refrigerated (2-4° C.), 120 days) was 0.26 mg/mL. The “Stability of α-tocopherol” value ([2]; Refrigerated (2-4° C.), 150 days) was 0.23 mg/mL, the “Stability of α-tocopherol” value ([2]; Refrigerated (2-4° C.), 180 days) was 0.27 mg/mL and the “Stability of α-tocopherol” value ([2]; Room Temperature (21-25° C.), 0 days) was 0.25 mg/mL. The “Stability of α-tocopherol” value ([2]; Room Temperature (21-25° C.), 7 days) was 0.21 mg/mL, the “Stability of α-tocopherol” value ([2]; Room Temperature (21-25° C.), 28 days) was 0.22 mg/mL and the “Stability of α-tocopherol” value ([2]; Room Temperature (21-25° C.), 60 days) was 0.23 mg/mL. For the same compound, the “Stability of α-tocopherol” value ([2]; Room Temperature (21-25° C.), 120 days) was 0.20 mg/mL, the “Stability of α-tocopherol” value ([2]; Room Temperature (21-25° C.), 150 days) was 0.21 mg/mL and the “Stability of α-tocopherol” value ([2]; Room Temperature (21-25° C.), 180 days) was 0.17 mg/mL. The “stability in Nanoemulsion Concentrate 3 (in words)” value ([2]; after 180 days stored at 21-25° C.) was “some slight degradation” and the “stability in Nanoemulsion Concentrate 3 (in words)” value ([2]; stored at 2-4° C., 180 days) was “high degree of stability”.
With `CCCCCc1cc(O)c(C/C=C(\C)CCC=C(C)C)c(O)c1` [CBG, cannabigerol] the “Stability of Plant-Derived Cannabinoid Compounds in Powder Concentrate” value ([1]; 0 days) was 1.1 mg/g powder, the “Stability of Plant-Derived Cannabinoid Compounds in Powder Concentrate” value ([1]; 1 days) was 1.07 mg/g powder and the “Stability of Plant-Derived Cannabinoid Compounds in Powder Concentrate” value ([1]; 2 days) was 1.08 mg/g powder. The “Stability of Plant-Derived Cannabinoid Compounds in Powder Concentrate” value ([1]; 3 days) was 1.09 mg/g powder, the “Stability of Plant-Derived Cannabinoid Compounds in Powder Concentrate” value ([1]; 5 days) was 1.11 mg/g powder and the “Stability of Plant-Derived Cannabinoid Compounds in Powder Concentrate” value ([1]; 8 days) was 1.07 mg/g powder. For the same compound, the “Stability of Plant-Derived Cannabinoid Compounds in Powder Concentrate” value ([1]; 9 days) was 1.09 mg/g powder, the “Stability of Plant-Derived Cannabinoid Compounds in Powder Concentrate” value ([1]; 10 days) was 1.08 mg/g powder and the “Stability of Plant-Derived Cannabinoid Compounds in Powder Concentrate” value ([1]; 11 days) was 1.14 mg/g powder. The “Stability of Plant-Derived Cannabinoid Compounds in Powder Concentrate” value ([1]; 12 days) was 1.10 mg/g powder, the “Stability of Plant-Derived Cannabinoid Compounds in Powder Concentrate” value ([1]; 15 days) was 1.08 mg/g powder and the “Stability of Plant-Derived Cannabinoid Compounds in Powder Concentrate” value ([1]; 16 days) was 1.06 mg/g powder. The “Stability of Plant-Derived Cannabinoid Compounds in Powder Concentrate” value ([1]; 17 days) was 1.06 mg/g powder, the “Stability of Plant-Derived Cannabinoid Compounds in Powder Concentrate” value ([1]; 18 days) was 1.13 mg/g powder and the “Stability of Plant-Derived Cannabinoid Compounds in Powder Concentrate” value ([1]; 19 days) was 1.14 mg/g powder. For the same compound, the “Stability of Plant-Derived Cannabinoid Compounds in Powder Concentrate” value ([1]; 22 days) was 1.12 mg/g powder, the “Stability of Plant-Derived Cannabinoid Compounds in Powder Concentrate” value ([1]; 23 days) was 1.13 mg/g powder and the “Stability of Plant-Derived Cannabinoid Compounds in Powder Concentrate” value ([1]; 24 days) was 1.09 mg/g powder. The “Stability of Plant-Derived Cannabinoid Compounds in Powder Concentrate” value ([1]; 25 days) was 1.13 mg/g powder, the “Stability of Plant-Derived Cannabinoid Compounds in Powder Concentrate” value ([1]; 26 days) was 1.14 mg/g powder and the “Stability of Plant-Derived Cannabinoid Compounds in Powder Concentrate” value ([1]; 29 days) was 1.10 mg/g powder. The “Stability of Plant-Derived Cannabinoid Compounds in Powder Concentrate” value ([1]; 30 days) was 1.07 mg/g powder, the “Stability of Plant-Derived Cannabinoid Compounds in Powder Concentrate” value ([1]; 60 days) was 1.11 mg/g powder and the “Stability of Plant-Derived Cannabinoid Compounds in Powder Concentrate” value ([1]; 90 days) was 1.13 mg/g powder. For the same compound, the “Stability of Plant-Derived Cannabinoid Compounds in Powder Concentrate” value ([1]; 120 days) was 1.09 mg/g powder, the “Stability of Plant-Derived Cannabinoid Compounds in Powder Concentrate” value ([1]; 150 days) was 1.11 mg/g powder and the “Stability of Plant-Derived Cannabinoid Compounds in Powder Concentrate” value ([1]; 180 days) was 1.07 mg/g powder. The “Stability of Plant-Derived Cannabinoid Compounds in Powder Concentrate” value ([1]; 210 days) was 1.06 mg/g powder, the “Stability of Plant-Derived Cannabinoid Compounds in Powder Concentrate” value ([1]; 240 days) was 1.12 mg/g powder and the “Stability of Plant-Derived Cannabinoid Compounds in Powder Concentrate” value ([1]; 270 days) was 1.15 mg/g powder. For the same compound, the “Stability of Plant-Derived Cannabinoid Compounds in Powder Concentrate” value ([1]; 300 days) was 1.09 mg/g powder, the “Stability of Plant-Derived Cannabinoid Compounds in Powder Concentrate” value ([1]; 330 days) was 1.10 mg/g powder and the “Stability of Plant-Derived Cannabinoid Compounds in Powder Concentrate” value ([1]; 360 days) was 1.09 mg/g powder. The “Stability of Plant-Derived Cannabinoid Compounds in Powder Concentrate” value ([1]; 390 days) was 1.14 mg/g powder, the “Stability of Plant-Derived Cannabinoid Compounds in Powder Concentrate” value ([1]; 420 days) was 1.11 mg/g powder and the “Stability of Plant-Derived Cannabinoid Compounds in Powder Concentrate” value ([1]; 450 days) was 1.06 mg/g powder. For the same compound, the “Stability of Plant-Derived Cannabinoid Compounds in Powder Concentrate” value ([1]; 480 days) was 1.12 mg/g powder, the “Stability of Plant-Derived Cannabinoid Compounds in Powder Concentrate” value ([1]; 510 days) was 1.07 mg/g powder and the “Stability of Plant-Derived Cannabinoid Compounds in Powder Concentrate” value ([1]; 540 days) was 1.07 mg/g powder. For the same compound, the “Stability of Plant-Derived Cannabinoid Compounds in Powder Concentrate” value ([1]; 570 days) was 1.06 mg/g powder.
